Test results taken from ChEMBL document CHEMBL1201862, “PubChem BioAssay data set” (2004).
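Where inhibition never reached the appropriate level, the endpoint shown equals the highest concentration tested. Otherwise, values were interpolated linearly from a five-concentration, 48-hour dose response in 96-well plates. Here, GI50 denotes the concentration required for 50% inhibition of growth.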 Activity calls are given as the source filed them. Cut-off read from the data, not from the text of the source: active = GI50 up to about 1.1 µM and inactive = higher.

Columns and labels:
Assay in all cases: inhibition of tumour cell growth, NCI panel, 48 h
BT-549 = tested on: BT-549
OVCAR-3 = tested on: OVCAR-3
CCRF-CEM = tested on: CCRF-CEM
NCI/ADR-RES = tested on: NCI/ADR-RES
NCI-H23 = tested on: NCI-H23
COLO 205 = tested on: COLO 205
T47D = tested on: T47D
SK-OV-3 = tested on: SK-OV-3
MDA-MB-435 = tested on: MDA-MB-435
HL-60 = tested on: HL-60
EKVX = tested on: EKVX
UO-31 = tested on: UO-31
IGROV-1 = tested on: IGROV-1
OVCAR-8 = tested on: OVCAR-8
MDA-N = tested on: MDA-N
OVCAR-5 = tested on: OVCAR-5
Hs-578T = tested on: Hs-578T
TK-10 = tested on: TK-10
ACHN = tested on: ACHN

SMILES	GI50 (BT-549)	GI50 (OVCAR-3)	GI50 (CCRF-CEM)	GI50 (NCI/ADR-RES)	GI50 (NCI-H23)	GI50 (COLO 205)	GI50 (T47D)	GI50 (SK-OV-3)	GI50 (MDA-MB-435)	GI50 (HL-60)	GI50 (EKVX)	GI50 (UO-31)	GI50 (IGROV-1)	GI50 (OVCAR-8)	GI50 (MDA-N)	GI50 (OVCAR-5)	GI50 (Hs-578T)	GI50 (TK-10)	GI50 (ACHN)
O=C1c2ccccc2C(=O)c2c(NC3CCCCC3)ccc(Nc3ccc(S(=O)(=O)O)cc3)c21	43.8 µM (inactive)	28.2 µM (inactive)	26.3 µM (inactive)	> 100 µM (inactive)	77.1 µM (inactive)	20.1 µM (inactive)	29 µM (inactive)	> 100 µM (inactive)	39.1 µM (inactive)	31.6 µM (inactive)	17 µM (inactive)	59 µM (inactive)	32.7 µM (inactive)	35.3 µM (inactive)	46 µM (inactive)	> 100 µM (inactive)	> 100 µM (inactive)	> 100 µM (inactive)	38.8 µM (inactive)
Cc1cc2nnn(C3CCCO3)c2cc1C (configuration not stated)	> 100 µM (inactive)	> 100 µM (inactive)	> 100 µM (inactive)	> 100 µM (inactive)	> 100 µM (inactive)	> 100 µM (inactive)	> 100 µM (inactive)	> 100 µM (inactive)	> 100 µM (inactive)	> 100 µM (inactive)	> 100 µM (inactive)	–	> 100 µM (inactive)	> 100 µM (inactive)	> 100 µM (inactive)	> 100 µM (inactive)	> 100 µM (inactive)	> 100 µM (inactive)	–
N#CCc1nc(-c2ccccc2)n[nH]1	> 100 µM (inactive)	> 100 µM (inactive)	> 100 µM (inactive)	> 100 µM (inactive)	> 100 µM (inactive)	> 100 µM (inactive)	> 100 µM (inactive)	> 100 µM (inactive)	> 100 µM (inactive)	> 100 µM (inactive)	83.6 µM (inactive)	> 100 µM (inactive)	> 100 µM (inactive)	> 100 µM (inactive)	> 100 µM (inactive)	> 100 µM (inactive)	77.4 µM (inactive)	> 100 µM (inactive)	> 100 µM (inactive)
N#C/C(N)=C(C#N)/N=C/Nc1ccc(N)cc1	> 100 µM (inactive)	> 100 µM (inactive)	44.3 µM (inactive)	> 100 µM (inactive)	> 100 µM (inactive)	> 100 µM (inactive)	> 100 µM (inactive)	> 100 µM (inactive)	> 100 µM (inactive)	30.3 µM (inactive)	> 100 µM (inactive)	> 100 µM (inactive)	> 100 µM (inactive)	> 100 µM (inactive)	> 100 µM (inactive)	> 100 µM (inactive)	95.3 µM (inactive)	> 100 µM (inactive)	> 100 µM (inactive)
N#CCCN(CCCCN(CCC#N)C(=O)Nc1ccccc1)C(=O)Nc1ccccc1	> 100 µM (inactive)	> 100 µM (inactive)	–	> 100 µM (inactive)	> 100 µM (inactive)	> 100 µM (inactive)	> 100 µM (inactive)	> 100 µM (inactive)	> 100 µM (inactive)	> 100 µM (inactive)	> 100 µM (inactive)	> 100 µM (inactive)	> 100 µM (inactive)	> 100 µM (inactive)	> 100 µM (inactive)	> 100 µM (inactive)	> 100 µM (inactive)	–	> 100 µM (inactive)
C=C(CCOC)CCC1CCCCC/C1=N\N(C)C (configuration not stated)	> 100 µM (inactive)	> 100 µM (inactive)	> 100 µM (inactive)	> 100 µM (inactive)	> 100 µM (inactive)	> 100 µM (inactive)	> 100 µM (inactive)	> 100 µM (inactive)	> 100 µM (inactive)	> 100 µM (inactive)	> 100 µM (inactive)	> 100 µM (inactive)	> 100 µM (inactive)	> 100 µM (inactive)	> 100 µM (inactive)	> 100 µM (inactive)	> 100 µM (inactive)	–	> 100 µM (inactive)
C/C(=N\NC(=S)Nc1ccccc1)c1nc2cccnc2[nH]1	5.26 µM (inactive)	0.456 µM (active)	0.389 µM (active)	3.3 µM (inactive)	9.53 µM (inactive)	3.78 µM (inactive)	0.193 µM (active)	5.36 µM (inactive)	3.7 µM (inactive)	2.92 µM (inactive)	0.649 µM (active)	1.38 µM (inactive)	3.48 µM (inactive)	2.76 µM (inactive)	5.65 µM (inactive)	4.79 µM (inactive)	14 µM (inactive)	–	1.44 µM (inactive)
COc1ccc(/N=N/C(=O)NC(CC(C)C)C(N)=O)cc1 (configuration not stated)	47.1 µM (inactive)	> 50 µM (inactive)	> 27.7 µM (inactive)	55.5 µM (inactive)	> 100 µM (inactive)	15.3 µM (inactive)	12.2 µM (inactive)	> 100 µM (inactive)	28.2 µM (inactive)	> 100 µM (inactive)	> 100 µM (inactive)	5.41 µM (inactive)	> 100 µM (inactive)	36.9 µM (inactive)	30.2 µM (inactive)	> 100 µM (inactive)	> 100 µM (inactive)	> 31.6 µM (inactive)	> 31.1 µM (inactive)
COc1ccc(-n2c(C)nc3ccc(NC4OC(COC(C)=O)C(OC(C)=O)C(OC(C)=O)C4OC(C)=O)cc3c2=O)cc1 (configuration not stated)	> 100 µM (inactive)	> 100 µM (inactive)	–	> 100 µM (inactive)	60.4 µM (inactive)	18.6 µM (inactive)	> 100 µM (inactive)	–	> 100 µM (inactive)	20.3 µM (inactive)	> 100 µM (inactive)	> 100 µM (inactive)	> 100 µM (inactive)	32.9 µM (inactive)	83.4 µM (inactive)	> 100 µM (inactive)	49.8 µM (inactive)	55.1 µM (inactive)	> 100 µM (inactive)
CC1(C)C(=O)C(C)(C)C12SSC1(S2)C(C)(C)C(=O)C1(C)C	> 100 µM (inactive)	> 100 µM (inactive)	–	77.1 µM (inactive)	> 100 µM (inactive)	67 µM (inactive)	> 100 µM (inactive)	> 100 µM (inactive)	> 100 µM (inactive)	2.41 µM (inactive)	> 100 µM (inactive)	> 100 µM (inactive)	> 100 µM (inactive)	> 100 µM (inactive)	> 100 µM (inactive)	> 100 µM (inactive)	> 100 µM (inactive)	> 100 µM (inactive)	> 100 µM (inactive)
CCCCCCCCCc1c(O)c(O)c(CCCCCCCCC)c(CCCCCCCCC)c1CCCCCCCCC	> 100 µM (inactive)	37.9 µM (inactive)	31 µM (inactive)	> 100 µM (inactive)	> 100 µM (inactive)	> 100 µM (inactive)	> 100 µM (inactive)	> 100 µM (inactive)	47.2 µM (inactive)	26.4 µM (inactive)	> 100 µM (inactive)	–	> 100 µM (inactive)	> 100 µM (inactive)	50.6 µM (inactive)	> 100 µM (inactive)	> 100 µM (inactive)	> 100 µM (inactive)	> 100 µM (inactive)
COc1cc(CNc2ccc3nc4n(c(=O)c3c2)CCCCC4)cc(OC)c1OC	19.6 µM (inactive)	39.8 µM (inactive)	13.6 µM (inactive)	40.4 µM (inactive)	37.2 µM (inactive)	35.9 µM (inactive)	24.1 µM (inactive)	> 100 µM (inactive)	31.7 µM (inactive)	> 100 µM (inactive)	36.6 µM (inactive)	35.4 µM (inactive)	95.1 µM (inactive)	> 100 µM (inactive)	46.2 µM (inactive)	> 100 µM (inactive)	51.9 µM (inactive)	84.7 µM (inactive)	35.2 µM (inactive)
Cc1ccc2ccc(=O)oc2c1	> 100 µM (inactive)	> 100 µM (inactive)	> 100 µM (inactive)	> 100 µM (inactive)	> 100 µM (inactive)	> 100 µM (inactive)	94.6 µM (inactive)	–	> 100 µM (inactive)	> 100 µM (inactive)	> 100 µM (inactive)	> 100 µM (inactive)	> 100 µM (inactive)	> 100 µM (inactive)	> 100 µM (inactive)	> 100 µM (inactive)	> 100 µM (inactive)	> 100 µM (inactive)	> 100 µM (inactive)
COc1ccc(/C=C/C(=O)c2cc(CN(C)C)c(O)c(CN(C)C)c2)cc1	27.9 µM (inactive)	18 µM (inactive)	35.2 µM (inactive)	33.1 µM (inactive)	46.9 µM (inactive)	18.4 µM (inactive)	19.6 µM (inactive)	–	44 µM (inactive)	22.9 µM (inactive)	49.8 µM (inactive)	25.2 µM (inactive)	37 µM (inactive)	29.8 µM (inactive)	21.2 µM (inactive)	> 100 µM (inactive)	43.6 µM (inactive)	40.6 µM (inactive)	27.9 µM (inactive)
Oc1cc(O)c2c(c1)O[C@H](c1cc(O)c(O)c(O)c1)[C@H](O)C2 [EPIGALLOCATECHIN]	19.2 µM (inactive)	47 µM (inactive)	17.9 µM (inactive)	22.6 µM (inactive)	23.1 µM (inactive)	18.2 µM (inactive)	37.2 µM (inactive)	18.6 µM (inactive)	6.9 µM (inactive)	19.5 µM (inactive)	> 10 µM (inactive)	18.5 µM (inactive)	20.4 µM (inactive)	16.1 µM (inactive)	18.8 µM (inactive)	15.6 µM (inactive)	52 µM (inactive)	–	21.2 µM (inactive)
